From paper PMC10053925, “Virtual Screening of Novel 24-Dehydroxysterol Reductase (DHCR24) Inhibitors and the Biological Evaluation of Irbesartan in Cholesterol-Lowering Effect” (Molecules, 2023)

Experiments:
[1] = target: T1, 3β-hydroxysterol-Δ(24)-reductase (DHCR24) (Homo sapiens, UniProt Q15392); assay: immune complex-activity assay; HPLC of desmosterol to cholesterol conversion; assay type: biochemical
T1 construct: DHCR24 immunoprecipitated from HepG2 cells infected with Ad-cmv-DHCR24 (antibody-DHCR24 complex)
T1 sequence (Q15392 23-516): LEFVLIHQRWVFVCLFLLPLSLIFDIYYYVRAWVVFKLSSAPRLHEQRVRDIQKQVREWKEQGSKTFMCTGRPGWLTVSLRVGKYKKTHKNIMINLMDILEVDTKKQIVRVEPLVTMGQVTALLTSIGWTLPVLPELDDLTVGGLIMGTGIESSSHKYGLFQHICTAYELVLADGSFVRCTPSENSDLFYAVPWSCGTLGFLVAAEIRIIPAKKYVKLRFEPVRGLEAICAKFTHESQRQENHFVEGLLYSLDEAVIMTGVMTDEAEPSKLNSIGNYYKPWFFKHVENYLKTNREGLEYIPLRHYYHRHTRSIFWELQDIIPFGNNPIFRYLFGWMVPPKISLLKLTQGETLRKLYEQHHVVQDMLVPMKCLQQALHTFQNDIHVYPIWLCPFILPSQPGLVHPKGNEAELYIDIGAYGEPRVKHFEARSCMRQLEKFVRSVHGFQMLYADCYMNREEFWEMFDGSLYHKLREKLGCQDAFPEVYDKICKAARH

[2] = target: T1, 3β-hydroxysterol-Δ(24)-reductase (DHCR24); assay: in vitro turnover to cholesterol by immunoprecipitated DHCR24, HPLC; assay type: biochemical

Compound | IC50 [1] [nM] | in vitro turnover to cholesterol by immunoprecipitated DHCR24, HPLC [2]
CCCCC1=NC2(CCCC2)C(=O)N1Cc1ccc(-c2ccccc2-c2nnn[nH]2)cc1 [IRB, Irbesartan] | 602 | 
CC(C)=CCC[C@@H](C)[C@H]1CC[C@H]2[C@@H]3CC=C4C[C@@H](O)CC[C@]4(C)[C@H]3CC[C@]12C [DES, desmosterol] |  | desmosterol in the system can be catalyzed into cholesterol only in the presence of the DHCR24 enzyme
